Experimental data: PubChem BioAssay AID248 (DTP/NCI, 2004)
“And” between values parts separate entries of the source, which are not always exact repeats. Equal values may be shown once. Inconclusive results and toxic doses are left out. Cut-off read from the data, not from the text of the source: active = T/C of 150% or more; inactive = T/C below 125%. Square brackets hold non-standard residues; d marks the D form. Peptide text beside a SMILES is read from it. * marks the point of attachment. ξ: configuration not given here. ξV = CC(C)C(N)C(=O)O; ClAc = O=C(CCl)*

Tested on: L1210 leukemia ip in BDF1 mice, survival T/C
Assay: NCI In Vivo Anticancer Drug Screen. Data for tumor model L1210 Leukemia (intraperitoneal) in B6D2F1 (BDF1) mice
Details: higher = longer survival
In short: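 Ratio derived from survival: compound-dosed mice over vehicle-dosed mice, all bearing a transplantable tumor.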

[1] = endpoint: mean survival time, dose: 100.0 mg/kg/injection, schedule: Q01DX009 (ip), vehicle: Klucel (hydroxypropylcellulose) (HPC)
[2] = endpoint: mean survival time, dose: 200.0 mg/kg/injection, schedule: Q01DX009 (ip), vehicle: Klucel (hydroxypropylcellulose) (HPC)
[3] = endpoint: mean survival time, dose: 400.0 mg/kg/injection, schedule: Q01DX009 (ip), vehicle: Klucel (hydroxypropylcellulose) (HPC)
[4] = endpoint: mean survival time, dose: 50.0 mg/kg/injection, schedule: Q01DX009 (ip), vehicle: Klucel (hydroxypropylcellulose) (HPC)
[5] = endpoint: mean survival time, dose: 100.0 mg/kg/injection, schedule: Q04DX003 (ip), vehicle: saline
[6] = endpoint: mean survival time, dose: 200.0 mg/kg/injection, schedule: Q04DX003 (ip), vehicle: saline
[7] = endpoint: mean survival time, dose: 400.0 mg/kg/injection, schedule: Q04DX003 (ip), vehicle: saline
[8] = endpoint: mean survival time, dose: 100.0 mg/kg/injection, schedule: Q04DX003 (ip), vehicle: saline with Tween-80

Measured: T/C

O=CCC(O)C(O)C(O)CO (stereo not drawn)
inactive: endpoint: mean survival time, dose: 62.5 mg/kg/injection, schedule: Q01DX009 (ip), vehicle: saline 115 % of control and 91 % of control | endpoint: mean survival time, dose: 125.0 mg/kg/injection, schedule: Q01DX009 (ip), vehicle: saline 94 % of control and 95 % of control | endpoint: mean survival time, dose: 125.0 mg/kg/injection, schedule: Q01DX010 (ip), vehicle: saline 94 % of control and 92 % of control | endpoint: mean survival time, dose: 125.0 mg/kg/injection, schedule: Q01DX Z (ip), vehicle: carboxymethylcellulose (CMC) 98 % of control | endpoint: mean survival time, dose: 250.0 mg/kg/injection, schedule: Q01DX001 (ip), vehicle: saline 101 % of control | endpoint: mean survival time, dose: 250.0 mg/kg/injection, schedule: Q01DX009 (ip), vehicle: saline 102 % of control and 104 % of control | endpoint: mean survival time, dose: 250.0 mg/kg/injection, schedule: Q01DX010 (ip), vehicle: saline 97 % of control and 101 % of control | endpoint: mean survival time, dose: 250.0 mg/kg/injection, schedule: Q01DX Z (ip), vehicle: carboxymethylcellulose (CMC) 102 % of control | endpoint: mean survival time, dose: 500.0 mg/kg/injection, schedule: Q01DX001 (ip), vehicle: saline 100 % of control | endpoint: mean survival time, dose: 500.0 mg/kg/injection, schedule: Q01DX009 (ip), vehicle: saline 101 % of control | endpoint: mean survival time, dose: 500.0 mg/kg/injection, schedule: Q01DX010 (ip), vehicle: saline 94 % of control and 101 % of control | endpoint: mean survival time, dose: 500.0 mg/kg/injection, schedule: Q01DX Z (ip), vehicle: carboxymethylcellulose (CMC) 116 % of control | endpoint: mean survival time, dose: 1000.0 mg/kg/injection, schedule: Q01DX001 (ip), vehicle: saline 101 % of control | endpoint: mean survival time, dose: 1000.0 mg/kg/injection, schedule: Q01DX010 (ip), vehicle: saline 102 % of control and 104 % of control | endpoint: mean survival time, dose: 1000.0 mg/kg/injection, schedule: Q01DX Z (ip), vehicle: carboxymethylcellulose (CMC) 109 % of control | endpoint: mean survival time, dose: 2000.0 mg/kg/injection, schedule: Q01DX001 (ip), vehicle: saline 106 % of control | endpoint: median survival time, dose: 62.5 mg/kg/injection, schedule: Q01DX009 (ip), vehicle: saline 100 % of control | endpoint: median survival time, dose: 125.0 mg/kg/injection, schedule: Q01DX009 (ip), vehicle: saline 111 % of control | endpoint: median survival time, dose: 250.0 mg/kg/injection, schedule: Q01DX009 (ip), vehicle: saline 100 % of control | endpoint: median survival time, dose: 500.0 mg/kg/injection, schedule: Q01DX009 (ip), vehicle: saline 100 % of control and 105 % of control

O=c1cc(NCc2ccccc2)[nH]c(=O)[nH]1
inactive: endpoint: mean survival time, dose: 50.0 mg/kg/injection, schedule: Q01DX001 (ip), vehicle: Klucel (hydroxypropylcellulose) (HPC) 91 % of control | endpoint: mean survival time, dose: 100.0 mg/kg/injection, schedule: Q01DX001 (ip), vehicle: Klucel (hydroxypropylcellulose) (HPC) 97 % of control

CCC(C)c1cc([N+](=O)[O-])cc([N+](=O)[O-])c1SC(=O)N(C)C (stereo not drawn)
inactive: [1] 94 % of control | [2] 97 % of control | [3] 100 % of control

Cn1c(=O)c(CC(C(=O)O)C(=O)O)nc2ccccc21
inactive: [4] 93 % of control | [1] 93 % of control | [2] 100 % of control

OCCOC(c1ccccc1)(c1ccccc1)c1ccccc1
inactive: endpoint: mean survival time, dose: 50.0 mg/kg/injection, schedule: Q01DX009 (ip), vehicle: saline with Tween-80 98 % of control | endpoint: mean survival time, dose: 100.0 mg/kg/injection, schedule: Q01DX009 (ip), vehicle: saline with Tween-80 100 % of control | endpoint: mean survival time, dose: 200.0 mg/kg/injection, schedule: Q01DX009 (ip), vehicle: saline with Tween-80 91 % of control

CC#CCOCC(O)CCl (stereo not drawn)
inactive: endpoint: mean survival time, dose: 100.0 mg/kg/injection, schedule: Q01DX009 (ip), vehicle: saline 94 % of control | endpoint: mean survival time, dose: 100.0 mg/kg/injection, schedule: Q04DX003 (ip), vehicle: saline sonified 108 % of control | endpoint: mean survival time, dose: 200.0 mg/kg/injection, schedule: Q01DX009 (ip), vehicle: saline 91 % of control | endpoint: mean survival time, dose: 200.0 mg/kg/injection, schedule: Q04DX003 (ip), vehicle: saline sonified 103 % of control | endpoint: mean survival time, dose: 400.0 mg/kg/injection, schedule: Q01DX009 (ip), vehicle: saline 105 % of control | endpoint: mean survival time, dose: 400.0 mg/kg/injection, schedule: Q04DX003 (ip), vehicle: saline sonified 117 % of control

Cn1[nH]cc(/C=N/C(N)=O)c1=O
inactive: endpoint: mean survival time, dose: 100.0 mg/kg/injection, schedule: Q01DX001 (ip), vehicle: saline 93 % of control | endpoint: mean survival time, dose: 200.0 mg/kg/injection, schedule: Q01DX001 (ip), vehicle: saline 91 % of control | endpoint: mean survival time, dose: 400.0 mg/kg/injection, schedule: Q01DX001 (ip), vehicle: saline 87 % of control

[N-]=[N+]=NCC(=O)NCc1cnccn1
inactive: endpoint: mean survival time, dose: 12.5 mg/kg/injection, schedule: Q01DX009 (ip), vehicle: saline 114 % of control | endpoint: mean survival time, dose: 25.0 mg/kg/injection, schedule: Q01DX009 (ip), vehicle: saline 105 % of control | endpoint: mean survival time, dose: 50.0 mg/kg/injection, schedule: Q01DX009 (ip), vehicle: saline 112 % of control | [5] 102 % of control | [6] 96 % of control | [7] 96 % of control

Nc1ccc(P(=O)(Nc2cccc(Cl)c2)Nc2cccc(Cl)c2)cc1
inactive: endpoint: mean survival time, dose: 100.0 mg/kg/injection, schedule: Q04DX003 (ip), vehicle: acetone 108 % of control | endpoint: mean survival time, dose: 200.0 mg/kg/injection, schedule: Q04DX003 (ip), vehicle: acetone 92 % of control | endpoint: mean survival time, dose: 400.0 mg/kg/injection, schedule: Q04DX003 (ip), vehicle: acetone 92 % of control

C1CNCCNCCCNCCNC1
inactive: endpoint: mean survival time, dose: 12.5 mg/kg/injection, schedule: Q04DX002 (ip), vehicle: saline with Tween-80 93 % of control | endpoint: mean survival time, dose: 25.0 mg/kg/injection, schedule: Q04DX002 (ip), vehicle: saline with Tween-80 101 % of control | endpoint: mean survival time, dose: 50.0 mg/kg/injection, schedule: Q04DX002 (ip), vehicle: saline with Tween-80 90 % of control

CCOC(=O)c1ccc2c(c1)C(=O)c1cc([N+](=O)[O-])ccc1-2
inactive: endpoint: mean survival time, dose: 100.0 mg/kg/injection, schedule: Q01DX001 (ip), vehicle: carboxymethylcellulose (CMC) 96 % of control | endpoint: mean survival time, dose: 200.0 mg/kg/injection, schedule: Q01DX001 (ip), vehicle: carboxymethylcellulose (CMC) 96 % of control | endpoint: mean survival time, dose: 400.0 mg/kg/injection, schedule: Q01DX001 (ip), vehicle: carboxymethylcellulose (CMC) 96 % of control

CCN(CC)CC(=O)N1Cc2ccccc2Cc2ccccc2C1
inactive: endpoint: mean survival time, dose: 25.0 mg/kg/injection, schedule: Q04DX003 (ip), vehicle: Klucel (hydroxypropylcellulose) (HPC) 92 % of control | endpoint: mean survival time, dose: 50.0 mg/kg/injection, schedule: Q04DX003 (ip), vehicle: Klucel (hydroxypropylcellulose) (HPC) 100 % of control | endpoint: mean survival time, dose: 100.0 mg/kg/injection, schedule: Q04DX003 (ip), vehicle: Klucel (hydroxypropylcellulose) (HPC) 107 % of control

FC1(F)C(F)(F)C(Cl)(Cl)C1(Cl)Cl
inactive: [5] 104 % of control | [6] 96 % of control | [7] 107 % of control

O=C(O)c1cnc[nH]1
inactive: [1] 100 % of control | [2] 92 % of control | [3] 94 % of control

CC(=O)CC(Br)CBr (stereo not drawn)
inactive: endpoint: mean survival time, dose: 25.0 mg/kg/injection, schedule: Q04DX003 (ip), vehicle: saline with Tween-80 91 % of control | endpoint: mean survival time, dose: 50.0 mg/kg/injection, schedule: Q04DX003 (ip), vehicle: saline with Tween-80 98 % of control | [8] 100 % of control

CC(C)C(NC(=O)CNC(=O)CCl)C(=O)O (stereo not drawn) (ClAc-Gly-[ξV]-OH)
inactive: [8] 101 % of control | endpoint: mean survival time, dose: 200.0 mg/kg/injection, schedule: Q04DX003 (ip), vehicle: saline with Tween-80 101 % of control

CCCOC(=O)NCCSC(=O)OCCC
inactive: endpoint: mean survival time, dose: 100.0 mg/kg/injection, schedule: Q01DX001 (ip), vehicle: saline with Tween-80 95 % of control | endpoint: mean survival time, dose: 200.0 mg/kg/injection, schedule: Q01DX001 (ip), vehicle: saline with Tween-80 95 % of control | endpoint: mean survival time, dose: 400.0 mg/kg/injection, schedule: Q01DX001 (ip), vehicle: saline with Tween-80 108 % of control

CCOC(=O)C1C(=O)C(C(C(=O)OC2CC(C)CCC2C(C)C)N(CCCl)CCCl)C(=O)C(C(=O)OCC)C1c1ccc(O)cc1 (stereo not drawn) (tested in a mixture with another compound)
inactive: [4] 93 % of control | [1] 109 % of control | [2] 111 % of control

O/N=C(\C=N\O)c1ccccc1
inactive: endpoint: mean survival time, dose: 100.0 mg/kg/injection, schedule: Q01DX009 (sc), vehicle: olive oil, sesame oil, peanut oil 109 % of control | endpoint: mean survival time, dose: 100.0 mg/kg/injection, schedule: Q04DX003 (sc), vehicle: olive oil, sesame oil, peanut oil 98 % of control | endpoint: mean survival time, dose: 200.0 mg/kg/injection, schedule: Q01DX009 (sc), vehicle: olive oil, sesame oil, peanut oil 112 % of control | endpoint: mean survival time, dose: 200.0 mg/kg/injection, schedule: Q04DX003 (sc), vehicle: olive oil, sesame oil, peanut oil 101 % of control | endpoint: mean survival time, dose: 400.0 mg/kg/injection, schedule: Q01DX009 (sc), vehicle: olive oil, sesame oil, peanut oil 98 % of control

CN1CC(C(=O)NO)C=C2c3cccc4[nH]cc(c34)CC21 (stereo not drawn)
inactive: endpoint: mean survival time, dose: 50.0 mg/kg/injection, schedule: Q04DX003 (ip), vehicle: alcohol 104 % of control | endpoint: mean survival time, dose: 100.0 mg/kg/injection, schedule: Q04DX003 (ip), vehicle: alcohol 101 % of control | endpoint: mean survival time, dose: 200.0 mg/kg/injection, schedule: Q04DX003 (ip), vehicle: alcohol 103 % of control
